Source: ChEMBL document CHEMBL1201861, “Genomics of Drug Sensitity in Cancer screening data, Wellcome Trust Sanger Institute”

Experiments:
Experiment in all cases: cells
HLE = assay type: functional, cell-based, Homo sapiens; settings: Homo sapiens, HLE;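 note: growth inhibition of human HLE cells, read out by a cell viability assay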
Description: SANGER: Inhibition of human HLE cell growth in a cell viability assay.

GCT = assay type: functional, cell-based, Homo sapiens; settings: Homo sapiens, GCT;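 note: GCT cell line proliferation inhibition, read out with a cell viability assay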
Description: SANGER: Inhibition of human GCT cell growth in a cell viability assay.

CAL-12T = assay type: functional, cell-based, Homo sapiens; settings: Homo sapiens, CAL-12T;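 note: growth inhibition of human CAL-12T cells, read out with a cell viability assay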
Description: SANGER: Inhibition of human CAL-12T cell growth in a cell viability assay.

OVCAR-4 = assay type: functional, cell-based, Homo sapiens; settings: Homo sapiens, OVCAR-4;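 note: growth inhibition of human OVCAR-4 cells, measured with a cell viability assay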
Description: SANGER: Inhibition of human OVCAR-4 cell growth in a cell viability assay.

COLO-320-HSR = assay type: functional, cell-based; settings: Homo sapiens;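 note: growth inhibition of COLO-320-HSR cells, determined with a cell viability assay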
Description: SANGER: Inhibition of human COLO-320-HSR cell growth in a cell viability assay.

SK-MEL-28 = assay type: functional, cell-based; settings: Homo sapiens;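 note: growth inhibition of human SK-MEL-28 cells, read out with a cell viability assay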
Description: SANGER: Inhibition of human SK-MEL-28 cell growth in a cell viability assay.

C-33-A = assay type: functional, cell-based, Homo sapiens; settings: Homo sapiens, C-33-A;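 note: cell viability assay measuring growth inhibition of C-33-A cells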
Description: SANGER: Inhibition of human C-33-A cell growth in a cell viability assay.

MEG-01 = assay type: functional, cell-based; settings: Homo sapiens;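 note: growth inhibition of MEG-01 cells, read out by a cell viability assay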
Description: SANGER: Inhibition of human MEG-01 cell growth in a cell viability assay.

EW-24 = assay type: functional, cell-based; settings: Homo sapiens;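 note: human EW-24 cancer cell line, growth inhibition read out via a cell viability assay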
Description: SANGER: Inhibition of human EW-24 cell growth in a cell viability assay.

D-392MG = assay type: functional, cell-based, Homo sapiens; settings: Homo sapiens, D-392MG
HT = assay type: functional, cell-based; settings: Homo sapiens
Description: SANGER: Inhibition of human HT cell growth in a cell viability assay.

COR-L105 = assay type: functional, cell-based, Homo sapiens; settings: Homo sapiens, COR-L105;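 note: cell growth inhibition determined with a viability assay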
Description: SANGER: Inhibition of human COR-L105 cell growth in a cell viability assay.

SW756 = assay type: functional, cell-based, Homo sapiens; settings: Homo sapiens, SW756;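 note: growth inhibition of human SW756 cells, read out with a cell viability assay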
Description: SANGER: Inhibition of human SW756 cell growth in a cell viability assay.

SHP77 = assay type: functional, cell-based, Homo sapiens, SHP-77; settings: Homo sapiens, SHP77;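 note: growth inhibition of human SHP-77 cells measured by a cell viability assay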
Description: SANGER: Inhibition of human SHP-77 cell growth in a cell viability assay.

SW 962 = assay type: functional, cell-based, Homo sapiens; settings: Homo sapiens, SW 962;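 note: growth inhibition of human SW962 cells, read out by a cell viability assay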
Description: SANGER: Inhibition of human SW962 cell growth in a cell viability assay.

KYSE-150 cell line = assay type: functional, cell-based, Homo sapiens; settings: Homo sapiens, KYSE-150;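 note: growth inhibition of human KYSE-150 cells, read out with a cell viability assay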
Description: SANGER: Inhibition of human KYSE-150 cell growth in a cell viability assay.

SH-4 = assay type: functional, cell-based, Homo sapiens; settings: Homo sapiens, SH-4;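 note: growth inhibition of SH-4 cells, read out with a cell viability assay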
Description: SANGER: Inhibition of human SH-4 cell growth in a cell viability assay.

SW13 = assay type: functional, cell-based, Homo sapiens; settings: Homo sapiens, SW13;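 note: IC50 is inhibition of SW13 cell growth, read out with a cell viability assay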
Description: SANGER: Inhibition of human SW13 cell growth in a cell viability assay.

KLE = assay type: functional, cell-based, Homo sapiens; settings: Homo sapiens, KLE;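 note: growth inhibition of human KLE cells, read out with a cell viability assay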
Description: SANGER: Inhibition of human KLE cell growth in a cell viability assay.

ABC-1 = assay type: functional, cell-based, Homo sapiens; settings: Homo sapiens, ABC-1;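 note: growth inhibition of human ABC-1 cells, read out by a cell viability assay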
Description: SANGER: Inhibition of human ABC-1 cell growth in a cell viability assay.

SW626 = assay type: functional, cell-based, Homo sapiens; settings: Homo sapiens, SW626;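 note: growth inhibition of SW626 cells, measured with a cell viability assay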
Description: SANGER: Inhibition of human SW626 cell growth in a cell viability assay.

SW-620 = assay type: functional, cell-based, Homo sapiens; settings: Homo sapiens, SW-620;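 note: growth inhibition of human SW-620 cells, measured by a cell viability assay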
Description: SANGER: Inhibition of human SW620 cell growth in a cell viability assay.

TE-12 = assay type: functional, cell-based; settings: Homo sapiens;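 note: growth inhibition of TE-12 cells, read out by a cell viability assay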
Description: SANGER: Inhibition of human TE-12 cell growth in a cell viability assay.

J-RT3-T3-5 = assay type: functional, cell-based; settings: Homo sapiens;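 note: cell viability assay measuring growth inhibition of human J-RT3-T3-5 cells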
Description: SANGER: Inhibition of human J-RT3-T3-5 cell growth in a cell viability assay.

ES7 = assay type: functional, cell-based, Homo sapiens; settings: Homo sapiens, ES7;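 note: growth inhibition of cultured human ES7 cells, read out as cell viability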
Description: SANGER: Inhibition of human ES7 cell growth in a cell viability assay.

NCI-H2228 = assay type: functional, cell-based, Homo sapiens; settings: Homo sapiens, NCI-H2228;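 note: growth inhibition of human NCI-H2228 cells, read out by a cell viability assay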
Description: SANGER: Inhibition of human NCI-H2228 cell growth in a cell viability assay.

GR-ST = assay type: functional, cell-based; settings: Homo sapiens
Description: SANGER: Inhibition of human GR-ST cell growth in a cell viability assay.

A-431 = assay type: functional, cell-based, Homo sapiens; settings: Homo sapiens, A-431;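 note: growth inhibition of A-431 cells, determined with a cell viability read-out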
Description: SANGER: Inhibition of human A431 cell growth in a cell viability assay.

EKVX = assay type: functional, cell-based, Homo sapiens; settings: Homo sapiens, EKVX;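 note: growth inhibition of human EKVX cells, read out with a cell viability assay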
Description: SANGER: Inhibition of human EKVX cell growth in a cell viability assay.

DU-4475 = assay type: functional, cell-based; settings: Homo sapiens
Description: SANGER: Inhibition of human DU-4475 cell growth in a cell viability assay.

HPAF-II = assay type: functional, cell-based, Homo sapiens; settings: Homo sapiens, HPAF-II;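 note: growth inhibition of HPAF-II cells, read out with a cell viability assay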
Description: SANGER: Inhibition of human HPAF-II cell growth in a cell viability assay.

MKN-28 = assay type: functional, cell-based, Homo sapiens; settings: Homo sapiens, MKN-28;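 note: cell viability assay read-out, IC50 reflects suppression of growth of human MKN-28 cells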
Description: SANGER: Inhibition of human MKN28 cell growth in a cell viability assay.

RS4-11 = assay type: functional, cell-based; settings: Homo sapiens;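 note: growth inhibition of RS4-11 cells, read out by a cell viability assay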
Description: SANGER: Inhibition of human RS4-11 cell growth in a cell viability assay.

KARPAS-45 = assay type: functional, cell-based; settings: Homo sapiens;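 note: inhibition of cell line growth, read out through a viability assay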
Description: SANGER: Inhibition of human KARPAS-45 cell growth in a cell viability assay.

NCI-H1792 = assay type: functional, cell-based, Homo sapiens; settings: Homo sapiens, NCI-H1792;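 note: growth inhibition of human NCI-H1792 cells, read out as cell viability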
Description: SANGER: Inhibition of human NCI-H1792 cell growth in a cell viability assay.

AGS = assay type: functional, cell-based, Homo sapiens; settings: Homo sapiens, AGS;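 note: growth inhibition of AGS cells, determined with a cell viability assay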
Description: SANGER: Inhibition of human AGS cell growth in a cell viability assay.

SCH = assay type: functional, cell-based, Homo sapiens; settings: Homo sapiens, SCH;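 note: growth inhibition of human SCH cells, read out in a cell viability assay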
Description: SANGER: Inhibition of human SCH cell growth in a cell viability assay.

RPMI-2650 = assay type: functional, cell-based, Homo sapiens; settings: Homo sapiens, RPMI-2650
Description: SANGER: Inhibition of human RPMI-2650 cell growth in a cell viability assay.

SJSA-1 = assay type: functional, cell-based, Homo sapiens; settings: Homo sapiens, SJSA-1;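 note: growth inhibition of human SJSA-1 cells, read out through a cell viability measurement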
Description: SANGER: Inhibition of human SJSA-1 cell growth in a cell viability assay.

KYSE-520 cell line = assay type: functional, cell-based, Homo sapiens; settings: Homo sapiens, KYSE-520;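 note: growth inhibition of human KYSE-520 cells, read out with a viability assay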
Description: SANGER: Inhibition of human KYSE-520 cell growth in a cell viability assay.

MZ2-MEL = assay type: functional, cell-based, Homo sapiens; settings: Homo sapiens, MZ2-MEL;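 note: growth inhibition of MZ2-MEL cells read out with a cell viability assay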
Description: SANGER: Inhibition of human MZ2-MEL cell growth in a cell viability assay.

SK-UT-1 = assay type: functional, cell-based, Homo sapiens; settings: Homo sapiens, SK-UT-1;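 note: growth inhibition of SK-UT-1 cells, measured by a cell viability assay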
Description: SANGER: Inhibition of human SK-UT-1 cell growth in a cell viability assay.

MZ1-PC = assay type: functional, cell-based, Homo sapiens; settings: Homo sapiens, MZ1-PC;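 note: cell viability assay measuring growth inhibition of human MZ1-PC cells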
Description: SANGER: Inhibition of human MZ1-PC cell growth in a cell viability assay.

Huh-7 = assay type: functional, cell-based, Homo sapiens; settings: Homo sapiens, Huh-7;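 note: HuH-7 cell growth inhibition, read out with a cell viability assay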
Description: SANGER: Inhibition of human HuH-7 cell growth in a cell viability assay.

SF-126 = assay type: functional, cell-based, Homo sapiens; settings: Homo sapiens, SF-126;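 note: growth inhibition of human SF126 cells, read out with a cell viability assay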
Description: SANGER: Inhibition of human SF126 cell growth in a cell viability assay.

LC-2-ad = assay type: functional, cell-based, Homo sapiens; settings: Homo sapiens, LC-2-ad;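 note: growth inhibition of human LC-2-ad cells, read out with a cell viability assay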
Description: SANGER: Inhibition of human LC-2-ad cell growth in a cell viability assay.

NCI-H1581 = assay type: functional, cell-based, Homo sapiens; settings: Homo sapiens, NCI-H1581;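 note: cell growth inhibition read out by a viability assay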
Description: SANGER: Inhibition of human NCI-H1581 cell growth in a cell viability assay.

RCM-1 = assay type: functional, cell-based, Homo sapiens; settings: Homo sapiens, RCM-1;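 note: growth inhibition of the RCM-1 line, determined with a cell viability readout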
Description: SANGER: Inhibition of human RCM-1 cell growth in a cell viability assay.

KNS-42 = assay type: functional, cell-based, Homo sapiens; settings: Homo sapiens, KNS-42;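 note: growth inhibition of KNS-42 cells, read out with a cell viability assay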
Description: SANGER: Inhibition of human KNS-42 cell growth in a cell viability assay.

LU-139 = assay type: functional, cell-based; settings: Homo sapiens
Description: SANGER: Inhibition of human LU-139 cell growth in a cell viability assay.

ATN-1 = assay type: functional, cell-based; settings: Homo sapiens;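 note: growth inhibition of human ATN-1 cells, read out with a cell viability assay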
Description: SANGER: Inhibition of human ATN-1 cell growth in a cell viability assay.

EW-13 = assay type: functional, cell-based; settings: Homo sapiens;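 note: growth inhibition of EW-13 cells, read out with a cell viability assay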
Description: SANGER: Inhibition of human EW-13 cell growth in a cell viability assay.

With `COC(=O)CNC(=O)C(=O)OC` the IC50 (HLE) was 57.7 µM, the IC50 (GCT) was greater than 4000 µM and the IC50 (CAL-12T) was 26.6 µM. It also gave an IC50 (OVCAR-4) of 93.8 µM, an IC50 (COLO-320-HSR) greater than 4000 µM and an IC50 (SK-MEL-28) of 569 µM. For the same compound, the IC50 (C-33-A) was greater than 4000 µM, the IC50 (MEG-01) was 484 µM and the IC50 (EW-24) was 2290 µM. It also gave an IC50 (D-392MG) of 1570 µM, an IC50 (HT) of 132 µM and an IC50 (COR-L105) of 26.4 µM. It also gave an IC50 (SW756) of 138 µM, an IC50 (SHP77) of 821 µM and an IC50 (SW 962) of 265 µM. It also gave an IC50 (KYSE-150 cell line) of 1330 µM, an IC50 (SH-4) of 2420 µM and an IC50 (SW13) of 639 µM. For the same compound, the IC50 (KLE) was 1580 µM, the IC50 (ABC-1) was 447 µM and the IC50 (SW626) was 1840 µM. The IC50 (SW-620) was 3230 µM, the IC50 (TE-12) was 182 µM and the IC50 (J-RT3-T3-5) was 1740 µM. The IC50 (ES7) was 478 µM, the IC50 (NCI-H2228) was 42.8 µM and the IC50 (GR-ST) was 213 µM. For the same compound, the IC50 (A-431) was 97.5 µM, the IC50 (EKVX) was 513 µM and the IC50 (DU-4475) was 899 µM. It also gave an IC50 (HPAF-II) of 998 µM, an IC50 (MKN-28) of 1120 µM and an IC50 (RS4-11) of 34.2 µM. For the same compound, the IC50 (KARPAS-45) was 484 µM, the IC50 (NCI-H1792) was 706 µM and the IC50 (AGS) was 629 µM. For the same compound, the IC50 (SCH) was greater than 4000 µM, the IC50 (RPMI-2650) was 279 µM and the IC50 (SJSA-1) was 278 µM. The IC50 (KYSE-520 cell line) was 613 µM, the IC50 (MZ2-MEL) was 478 µM and the IC50 (SK-UT-1) was 1050 µM. It also gave an IC50 (MZ1-PC) of 46 µM, an IC50 (Huh-7) of 61.7 µM and an IC50 (SF-126) of 220 µM. The IC50 (LC-2-ad) was 24.6 µM, the IC50 (NCI-H1581) was 729 µM and the IC50 (RCM-1) was 2980 µM. It also gave an IC50 (KNS-42) of 229 µM, an IC50 (LU-139) of 184 µM and an IC50 (ATN-1) of 601 µM. For the same compound, the IC50 (EW-13) was 39 µM.
